Test results from patent US9307765B2, “Selective weed control using D-napropamide” (UPL Limited, priority 2013, dated 2016).
Where “and” joins values, the source holds several entries; their conditions need not be identical. Identical values can stand only once.

How the values were obtained:
Type in all cases: in vivo
Poa annua = assay: Pre-emergence glasshouse pot study, seedling emergence and growth (OECD guideline); conditions: for Mean Final Foliar Fresh Weights Expressed as Percentage of Untreated Controls / Mean Final Foliar Fresh Weights: Poa annua; for Mean Final Foliar Fresh Weights: 21 days after 50% emergence, untreated 0.90
Description: (§1) A study was carried out to determine the relative biological activity of the D and L isomers of Napropamide when applied pre-emergence to one monocotyledon and one dicotyledon species. Napropamide, containing 450 grammes active substance per liter (g a.s./L) formulated as a suspension concentrate and the D-isomer of Napropamide (1000 g a.s./L) were applied at a range of concentrations from 0.1575 to 1.26 kilograms of active substance per hectare (kg a.s/Ha).
(§2) EC50 values in kg a.s./Ha were calculated from the dose response data using final foliar fresh weight data for each species and was used to determine the relative biological activity of the D and L isomers of Napropamide. The methodology was based on the OECD guideline […], according to the revision of July 2006 for seedling emergence and growth. The study was conducted to GLP standards.
(§3) Seeds were sown directly into non-porous plastic pots containing the following mix of soil: 10 L of sterile loam+4 L of coarse grit (washed quartztite, nominal 4 mm)+10 L of sand. This soil mix was characterized as a sandy loam with an organic carbon content of 1.5% and pH of 7.2. Details of the plant species, number of seeds per pot and pot size are shown below. All seeds were sown 1-2 cm deep.
(§4) The highest concentration of Napropamide was prepared by measuring a calculated volume by weight and diluting with tap water to the full required volume. Lower concentrations were prepared by serial dilution with water. D-Napropamide was prepared by dissolving the calculated weight in acetone and adding water to give the full required volume in 50:50 acetone+water. Lower concentrations were prepared by serial dilution with 50:50 acetone+water. D-Napropamide dissolved completely.
(§5) The sprayer was calibrated within 24 hours prior to application by weight of 15 applications of water to six 86 mm ID petri dishes. The total weight of water over a known area enabled a simple calculation giving the volume rate to be made. The volume rate achieved was within the range specified in the study plan (200 L/Ha±10%).
(§6) Replication was 5 pots per treatment for each plant species. After application, pots were placed on the bench in glasshouse in randomized blocks. Plants were assessed for emergence, mortality and visual injury (expressed as a percentage of the untreated control: 0%=no injury, 1-39%=slight injury, 40-69%=moderate injury, 70-99%=severe injury and 100%=all plants dead) at 14 and 21 days after 50% emergence in the untreated controls. Fresh weights (biomass above soil level) were also recorded 21 days after 50% emergence in the untreated controls. Plants were fully turgid at the time of harvest.
(§7) Assessment data was recorded on pro-forma sheets and entered into Gylling ARM 7 software. EC50 values were calculated using audited means data from the final assessments (21 day). Gylling ARM 7.0 software used a simple probit—maximum likelihood estimation method with 99% confidence level. The EC50 values generated were then visually checked against the means data table to verify they appeared correct.

Stellaria media = assay: as above; conditions: for EC50 based on the final fresh weights: Stellaria media (dicot), 21 day assessment, probit; for Mean Final Foliar Fresh Weights Expressed as Percentage of Untreated Controls / Mean Final Foliar Fresh Weights: Stellaria media; for Mean Final Foliar Fresh Weights: 21 days after 50% emergence, untreated 1.44
Description: as §1, §2, §3, §4, §5, §6, §7

Ranunculus repens = assay: Field trial on strawberries, pre-emergence, visual % control
Description: (§8) Field trials were conducted on various moncotyledonous weeds and dicotyledonous weeds and the effect of D-isomer of Napropamide was studied to understand the selective and effective control of dicotyledonous weeds over monocotyledonous weeds. The effect of D-isomer of Napropamide in comparison to racemic napropramide and untreated was studied, which is concluded hereinbelow:
(§9) Several small plot replicated trials were carried out to evaluate and/or compare the efficacy of D-Napropamide against a range of indicated annual broadleaved and grass weed species in the indicated crops. No problems were encountered during mixing or application of any of the product formulations or tank mixtures under test.
(§10) In each of the reported data, the homogeneity of variance was tested by Bartlett's test. Wherever this test indicated no homogeneity of variance, the transformed values were used for analysis of variance. Assessment data was then analyzed using a two-way analysis of variance (ANOVA) on untransformed and transformed data. The probability of no significant differences occurring between treatment means was calculated as the F probability value (p(F)). A mean comparison test was only performed and reported when the treatment of F that was calculated during analysis of variance was significant at the observed significance level specified for the mean comparison test. Where the data was transformed, treatment means in the reports were presented in their detransformed state, with the appropriate letter test and mean descriptions (LSD and standard deviation) derived from the transformed ANOVA.
Trial was carried out on strawberries to evaluate the efficacy and selectivity of D-Napropamide and equivalent rate of Devrinol (Napropramide) applied pre-emergence. […] The percentage control of D-isomer of Napropamide and Devrinol was assessed in comparison to the untreated after 224 days after application.

Papaver rhoeas = assay: as above
Description: as §8, §9, §10
(§11) Trial was carried out on strawberries to evaluate the efficacy and selectivity of D-Napropamide and equivalent rate of Devrinol (Napropramide) applied pre-emergence. […]

Senecio vulgaris [1] = assay: as above
Description: as §8, §9, §10, §11

Aperaspica-venti = assay: Field trial in winter oilseed rape, pre-emergence, % control
Description: as §8, §9, §10
(§12) Trials were conducted to evaluate the selectivity and efficacy of D-isomer of Napropamide when applied pre-emergence to oilseed rape crop. The % control of weed was assessed at regular intervals.

Cirsium arvense = assay: as above
Description: as §8, §9, §10, §12

Fallopia convolvulus = assay: as above
Description: as §8, §9, §10, §12

Senecio vulgaris [2] = assay: as above
Description: as §8, §9, §10, §12

Veronica persica = assay: as above
Description: as §8, §9, §10, §12

Matricaria sp. = assay: Field trial in winter oilseed rape, pre-emergence, % control and ground cover; conditions: 450 g/L @ 2.8 L/Ha
Description: as §8, §9, §10, §12

Digitaria sanguinalis = assay: Plot trial, % control of Digitaria sanguinalis; conditions: 9 L/Ha of 450 g/L formulation
Description: as §8, §9
as §10, with “ANOVA. […]” for “ANOVA.”

CCN(CC)C(=O)C(C)Oc1cccc2ccccc12 (racemic) [Napropamide, N,N-diethyl-2-(α-naphthoxy)propionamide]
EC50 based on the final fresh weights (Poa annua; Poa annua (monocot), 21 day assessment, probit): 0.72 kg/Ha | Mean Final Foliar Fresh Weights Expressed as Percentage of Untreated Controls (Poa annua; rate 0.1575 kg/Ha): 100% | Mean Final Foliar Fresh Weights (Poa annua; rate 0.315 kg/Ha pre-emergence): 0.57 g | Mean Final Foliar Fresh Weights (Poa annua; rate 0.63 kg/Ha pre-emergence): 0.98 g | Mean Final Foliar Fresh Weights Expressed as Percentage of Untreated Controls (Poa annua; rate 1.26 kg/Ha): 23% | EC50 based on the final fresh weights (Stellaria media): 0.22 kg/Ha | Mean Final Foliar Fresh Weights Expressed as Percentage of Untreated Controls (Stellaria media; rate 0.1575 kg/Ha): 70% | Mean Final Foliar Fresh Weights (Stellaria media; rate 0.315 kg/Ha pre-emergence): 0.3 g | Mean Final Foliar Fresh Weights (Stellaria media; rate 0.63 kg/Ha pre-emergence): 0.328 g | Mean Final Foliar Fresh Weights Expressed as Percentage of Untreated Controls (Stellaria media; rate 1.26 kg/Ha): 16% | Percentage Control at 224 DAA (Ranunculus repens; 5 L/Ha of 450 g/L formulation): 33.3% | Percentage Control at 224 DAA (Ranunculus repens; 7 L/Ha of 450 g/L formulation): 66.7% | Percentage Control at 224 DAA (Ranunculus repens; 14 L/Ha of 450 g/L formulation): 83.3% | Percentage Control at 70 DAA (Papaver rhoeas; 5 L/Ha of 450 g/L formulation): 62.5% | Percentage Control at 70 DAA (Papaver rhoeas; 7 L/Ha of 450 g/L formulation): 81.7% | Percentage Control at 70 DAA (Papaver rhoeas; 14 L/Ha of 450 g/L formulation): 82.5% | Percentage Control at 70 DAA (Senecio vulgaris [1]; 5 L/Ha of 450 g/L formulation): 37.5% | Percentage Control at 70 DAA (Senecio vulgaris [1]; 7 L/Ha of 450 g/L formulation): 25.0% | Percentage Control at 70 DAA (Senecio vulgaris [1]; 14 L/Ha of 450 g/L formulation): 12.5% | Percentage Control at 63 DAA (Aperaspica-venti; 450 g/L @ 1.6 L/Ha): 40.00% | Percentage Control at 63 DAA (Aperaspica-venti; 450 g/L @ 2.8 L/Ha): 76.25% and 67.50% | Mean Percentage Control (Cirsium arvense; 450 g/L @ 2.8 L/Ha): 20.00% | Conclusion: control of the weed at equivalent dosage (Cirsium arvense; Cirsium arvense, dicot): negligible control | Percentage Control at 63 DAA (Fallopia convolvulus; 450 g/L @ 1.6 L/Ha): 30.00% | Percentage Control at 63 DAA (Fallopia convolvulus; 450 g/L @ 2.8 L/Ha): 0.00% | Percentage Control at 63 DAA (Senecio vulgaris [2]; 450 g/L @ 1.6 L/Ha): 36.96% | Percentage Control at 63 DAA (Senecio vulgaris [2]; 450 g/L @ 2.8 L/Ha): 4.65% | Percentage Control at 63 DAA (Veronica persica; 450 g/L @ 1.6 L/Ha): 75.00% | Percentage Control at 63 DAA (Veronica persica; 450 g/L @ 2.8 L/Ha): 75.00% | Percentage ground cover %, value in brackets (untreated 0.0%) (Matricaria sp.): (52.8%) | Percentage Control at 49 DAA (Matricaria sp.; oilseed rape): 61.25% | Percentage ground cover % (Matricaria sp.; untreated 4.50): 2.13% | % Control (Digitaria sanguinalis; 16 DAA): 12.50% | % Control (Digitaria sanguinalis; 33 DAA): 15.00%

CCN(CC)C(=O)[C@H](C)Oc1cccc2ccccc12 [L-Napropamide, reference compound]
EC50 based on the final fresh weights (Stellaria media): 1.26 kg/Ha
